The target in data set [1] is KRAS (G12C)::SOS1 protein-protein interaction (Homo sapiens (Human), UniProt P01116, C118S/C51S/C80L/G12C). Nature of the data set: KRAS::SOS1 AlphaScreen binding assay (KRAS G12C). As to conditions: GDP. In outline:
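Biotinylated KRAS G12C 1-169 (C51S/C80L/C118S, 7.5 nM) and GST-SOS1 564-1049 (5 nM) with 10 μM GDP in PBS, 0.1% BSA, 0.05% Tween 20 were incubated 30 min with compounds (top 100 μM, eleven fivefold dilutions). AlphaScreen beads were then added for 60 min at room temperature in the dark. IC50 came from a 4-parameter logistic fit.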
In general terms: Bead proximity is the source of the signal in Alpha formats.

In another data set the test system is MKN1 cells. The experiment in a line: MKN1 CTG proliferation assay (120 h) (gastric cancer, wt amplified). As to conditions: Homo sapiens, MKN-1. Type of data set: cell-based. The procedure, abridged: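 Cells were seeded at 200 per well in RPMI-1640 with 10% FCS, grown overnight, then exposed to logarithmic compound dilutions in duplicate for 120 h. Viability was read by CellTiter-Glo luminescence as percent of DMSO controls, with untreated T0 cells measured at dosing. IC50 came from four-parameter non-linear regression.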

Data set [2] in a line: Plasma protein binding assay (PPB), equilibrium dialysis. Type of data set: in vitro ADME. As to conditions: bovine, 10% FCS in PBS, read-out: PPB 10% FCS (% fu). The procedure, abridged:
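Compound at 1-10 μmol/L in 10% FCS in PBS was dialysed against PBS (with or without dextran) across a 5-10 kg/mol cut-off membrane for 3-5 h at 37° C. Both chambers were protein-precipitated and compound was quantified by LC-MS. The unbound fraction was calculated from the serum-side and buffer-side concentrations.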

The nature of data set [3]: Solubility measurement (DMSO solution precipitation method). As to conditions: aqueous buffer, kinetic from dmso stock. Type of data set: physicochemical. The procedure, abridged:
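A 10 mM DMSO stock was diluted to 250 μM final in McIlvaine buffer at pH 4.5 or 6.8, then shaken 24 h at ambient temperature. After filtering off precipitate, filtrate concentration was quantified by LC-UV against a fully dissolved reference in acetonitrile/water (1:1).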

[4] abbreviates: McIlvaine buffer pH 4.5, 24 h, read-out: solubility pH 4.5.
Where [5] appears, read: McIlvaine buffer pH 6.8, 24 h, read-out: solubility pH 6.8.

The record followed here is US20250019385A1, “SPIROCYCLIC ANNULATED 2-AMINO-3-CYANO THIOPHENES AND DERIVATIVES FOR THE TREATMENT OF CANCER” (Boehringer Ingelheim International GmbH, priority 2023, published 2025).

The IC50 is the point on the concentration scale where inhibition reaches its midpoint. A high value points to weaker potency. By solubility is commonly meant how much of the substance goes into solution per volume.

Values after ≈ are worked out from the molar mass of the structure shown. Read-outs that look alike come from different tables or passages of the source. Where only a bound is given, the exact number is not on record here.

Sequence of KRAS (G12C)::SOS1 protein-protein interaction (P01116 other isoform, or with tags, fused parts or gaps G12C/C51S/C80L/C118S): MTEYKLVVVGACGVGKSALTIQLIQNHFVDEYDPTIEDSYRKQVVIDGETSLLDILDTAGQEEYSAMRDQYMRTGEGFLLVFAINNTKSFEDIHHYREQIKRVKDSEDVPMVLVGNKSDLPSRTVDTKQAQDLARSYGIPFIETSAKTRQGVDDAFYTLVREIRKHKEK

Consider `C[C@H](Oc1nc(-c2noc3c2CCC[C@@]32CCCc3sc(N)c(C#N)c32)nc2c1CN(c1ncccn1)[C@@]21CCOC1)[C@@H]1CCCN1C` [II-7b], for which the IC50 was 3 nM in data set [1] and 635 nM in the data set with MKN1 cells. The fraction unbound in data set [2] was 0.05. For the same molecule, the figures for the solubility at 24 h in data set [3] (setting [4]) and in data set [3] (setting [5]) were 62 µg/mL (≈ 93.1 µM) and 23 µg/mL (≈ 34.5 µM), respectively.
On to `C[C@H](Oc1nc(-c2noc3c2CCC[C@@]32CCCc3sc(N)c(C#N)c32)nc2c1COC[C@]21CCOC1)[C@@H]1CCCN1C` [II-8], for which the values for the IC50 (in data set [1]; in the data set on MKN1 cells) were 1 nM and 3 nM, respectively. Besides, the fraction unbound in data set [2] was 0.13. The solubility at 24 h was > 142 µg/mL in data set [3] (setting [4]) and > 143 µg/mL in data set [3] (setting [5]).
The corresponding values for `C[C@H](Oc1nc(-c2noc3c2CCC[C@@]32CCCc3sc(N)c(C#N)c32)nc2c1COC[C@@]21CCOC1)[C@@H]1CCCN1C` [II-9a] are 2 nM, 209 nM, 0.07, > 141 µg/mL and > 138 µg/mL.
Turning to `C[C@H](Oc1nc(-c2noc3c2CCC[C@@]32CCCc3sc(N)c(C#N)c32)nc2c1CCO[C@]21CCOC1)[C@@H]1CCCN1C` [II-9b], the IC50 was 1 nM in data set [1] and 19 nM in the data set on MKN1 cells. For the same molecule, the fraction unbound in data set [2] is 0.09. The solubility at 24 h in data set [3] (setting [4]) was > 141 µg/mL; in data set [3] (setting [5]), > 137 µg/mL.
The corresponding values for `CO[C@@H]1C[C@@H]([C@H](C)Oc2nc(-c3noc4c3CCC[C@@]43CCCc4sc(N)c(C#N)c43)nc3c2COC[C@]32CCOC2)N(C)C1` [II-11] are 2 nM, 6 nM, 0.09, > 144 µg/mL and 45 µg/mL (≈ 71.1 µM).
With `C[C@H](Oc1nc(-c2noc3c2CCC[C@@]32CCCc3sc(N)c(C#N)c32)nc2c1CNC[C@]21CCOC1)[C@@H]1CCCN1C` [II-15], the IC50 was 2 nM in data set [1] and 3 nM with MKN1 cells. Further, the fraction unbound in data set [2] stood at 0.3. Moreover, the solubility at 24 h is > 147 µg/mL in data set [3] (setting [4]) and > 148 µg/mL in data set [3] (setting [5]).
